Several values for one entry are separate records, joined by “and”; a condition that tells them apart may be missing. Equal values may be shown once.
Key:
[1] = tested on: human plasma; experiment: Chemical stability in plasma over the UC assay time course (T5hr/T1hr); conditions: for % remaining_PPB: chemical remaining in plasma over the PPB assay time course, NS = no significant loss; for PPB_Stab_Fail: flag for stability failure in the plasma protein binding assay (1 = fail, 0 = pass); for Fstable.Med: median fraction stable in plasma, UC assay Level4; for Time 1 hr / Time 1 hr, Run-specific Avg: amount measured in plasma sample at 1 hr; for Time 1 hr / Time 5 hr: replicates A, B, C; for Time 1 hr / Time 1 hr, Run-specific Avg / Time 5 hr / Time 5 hr, Run-specific Avg: unit not given; for Time 1 hr, Run-specific Avg / Time 5 hr, Run-specific Avg: run average; for Time 5 hr / Time 5 hr, Run-specific Avg: amount measured in plasma sample at 5 hr; for Stability (T5hr/ T1hr), Run-specific Avg: average of one UC run; for Mean Stability: mean T5hr/T1hr ratio in plasma over all replicates/runs
[2] = tested on: human plasma; experiment: Ultracentrifugation (UC) plasma protein binding assay, fraction unbound in plasma (fup); conditions: for Mean fu: fraction unbound in human plasma, ultracentrifugation, some values based on eLOQ; for Fup.Med: median fraction unbound in plasma; for Fup.Med / Fup.point: UC assay Level4; for Fup.point: point estimate of fraction unbound in plasma; for Aqueous Fraction / Aqueous Fraction, Run-specific Avg: amount measured in aqueous fraction after ultracentrifugation, unit not given; for Aqueous Fraction: replicates A, B, C; for Aqueous Fraction, Run-specific Avg: run average; for Fraction Unbound (fu), Run-specific Avg: average of one UC run

| Compound | % remaining_PPB [1] [%] | PPB_Stab_Fail [1] | Fstable.Med [1] | Mean fu [2] | Fup.Med [2] | Fup.point [2] | Time 1 hr [1] | Time 1 hr, Run-specific Avg [1] | Time 5 hr [1] | Time 5 hr, Run-specific Avg [1] | Stability (T5hr/ T1hr), Run-specific Avg [1] | Mean Stability [1] | Aqueous Fraction [2] | Aqueous Fraction, Run-specific Avg [2] | Fraction Unbound (fu), Run-specific Avg [2] | Mean Fu ([2]; mean fraction unbound in human plasma over all UC replicates/runs) |
| --- | --- | --- | --- | --- | --- | --- | --- | --- | --- | --- | --- | --- | --- | --- | --- | --- |
| C=C(C)C(=O)OCCC(F)(F)C(F)(F)C(F)(F)C(F)(F)C(F)(F)C(F)(F)F [6:2 Fluorotelomer methacrylate] | 54 | 0 | 0.0566 | 0.21 | 0.102 | 0.0856 |  |  |  |  |  |  |  |  |  |  |
| NCC(F)(F)C(F)(F)C(F)(F)C(F)(F)C(F)(F)C(F)(F)F [1H,1H-Perfluoroheptylamine] | 54 | 0 | 0.0946 | 0.129 | 0.129 | 0.121 | 7913.09 and 7505.36 and 6518.71 | 7312.39 | 3934.26 and 4036.14 and 3821.62 | 3985.20 | 0.545 | 0.541 | 488.915 and 403.165 and 617.709 | 503.26 | 0.13 |  |
| OCCC(F)(F)C(F)(F)C(F)(F)C(F)(F)C(F)(F)C(F)(F)C(F)(F)C(F)(F)F [8:2 Fluorotelomer alcohol] | 100 | 0 | 0.162 | 0.0170 | 0.0168 | 0.0243 | 10349.3 (2×) and 9635.91 | 10111.53 | 7909.09 and 8525.8 and 8231.76 | 8217.44 | 0.813 | 0.814 | 192.869 and 61.5201 and 158.809 | 137.73 | 0.017 |  |
| NCC(F)(F)C(F)(F)C(F)(F)C(F)(F)C(F)(F)C(F)(F)C(F)(F)C(F)(F)F [1H,1H-Perfluorononylamine] | 60 | 0 | 0.177 | 0.043 | 0.0402 | 0.0359 | 12346.8 and 12130.3 and 11151.5 | 11876.18 | 7604.95 and 6828.46 and 6766.48 | 7216.71 | 0.608 | 0.598 | 414.774 and 241.353 and 265.963 | 307.36 | 0.0431 |  |
| FC(F)(F)C(F)(F)C(F)(F)C(F)(F)C(F)(F)C(F)(F)CCS [DTXSID20379947] | 0 | 1 |  |  |  |  |  |  |  |  |  |  |  |  |  |  |
| FC(F)(F)C(F)(F)CNCC(F)(F)C(F)(F)F [Bis(1H,1H-perfluoropropyl)amine] |  | 0 | 0.999 | 0.0477 | 0.0412 | 0.0433 | 11322.6 and 13421.7 and 13036.1 | 12593.46 | 11284.3 and 10114.7 and 8561.71 | 10699.45 | 0.850 | 0.799 | 403.75 and 491.531 and 501.978 | 465.75 | 0.05 | 0.048 |
